In ChEMBL document CHEMBL1132516, “Further hypotensive metabolites from Verbesina caracasana” (1999) one finds Change data, which are given here for eleven compounds.

Assay [1] concerns Rattus norvegicus. Description: Percent change in heart rate expressed in beats / min in anesthetized rats by i.v. administration. The format is functional.
The test system of assay [2] is Rattus norvegicus. Description: Maximum rate of rise of the left ventricular isovolumetric pressure in anesthetized rats by i.v. administration. The format is functional, Heart left ventricle.
The test system of assay [3] is Rattus norvegicus. Description: Percent change in respiratory frequency (RF) expressed in beats / min in anesthetized rats by i.v. administration. The format is functional.
In assay [4] the test system is Rattus norvegicus. Description: Percent change in diastolic blood pressure (mmHg)in anesthetized rats by i.v. administration. The format is functional, Artery.
Assay [5] relates to Rattus norvegicus. Description: Percent change in systolic blood pressure (mmHg)in anesthetized rats by i.v. administration. The format is functional, Artery.
The test system of assay [6] is Rattus norvegicus. Description: Percent change in tidal volume expressed in microL in anesthetized rats by i.v. administration. The format is functional.
For assay [7], the system named is Rattus norvegicus. Description: Maximum rate of rise of the left ventricular isovolumetric pressure (dP/dt, an index of cardiac inotropism in mmHg/sec)in anesthetized rats by i.v. administration. The format is functional, Heart left ventricle.

As to `COc1ccc(/C=C/C(=O)NCCCC/N=C(\N)NCC=C(C)C)cc1OC`, the Change in assay [1] is recorded as 5%; in assay [2], 57%; in assay [3] it was 21%; in assay [4], -29%; in assay [5], -26%; in assay [6], 41%.
Take `COc1ccc(/C=C/C(=O)NCCCCN=C(N)N)cc1OC`: the Change in assay [1] is on record as 0%; in assay [2] it was 11%; in assay [3], 4%; in assay [4], -8%; in assay [5], -8%; in assay [6] it was 12%.
For `CC(C)=CCNC(=N)NCCCCN`, the Change in assay [1] was -4%; in assay [2] it was 23%; in assay [3] it was 4%; in assay [4], -17%; in assay [5], -11%; in assay [6] it was 11%.
`NCCCCN=C(N)N` [AGMATINE]: the Change in assay [1] is given as 0%; in assay [2], 16%; in assay [3], 12%; in assay [4] it was -10%; in assay [5], -8%; in assay [6], 14%.
For the compound `Clc1cccc(Cl)c1NC1=NCCN1` [CLONIDINE], the Change in assay [1] is recorded as -15%; in assay [2], -21%; in assay [4], -17%; in assay [5] it was -16%.
In the case of `CC(C)=CCN=C(N)N` [GALEGINE], the Change is reported as -27% in assay [1]; 32% in assay [2]; 70% in assay [3]; -33% in assay [4]; -27% in assay [5]; 31% in assay [6].
On to `N=C(N)NCCN1CCCCCCC1` [GUANETHIDINE], for which the Change in assay [1] is -7%; in assay [2], -17%; in assay [4], -24%; in assay [5], -26%.
On to `C[N+](C)(C)CCCCCC[N+](C)(C)C.[Cl-].[Cl-]` [HEXAMETHONIUM CHLORIDE], for which the Change in assay [1] is -13%; in assay [4], -43%; in assay [7] it was -69%; in assay [5], -42%.
For `NCCc1c[nH]cn1` [HISTAMINE], in that order: -3%, -26%, -16% and -25%.
The like results for `COc1ccc(Cc2nccc3cc(OC)c(OC)cc23)cc1OC` [PAPAVERINE] were, in that order, -5%, -16%, -19% and -18%.
The like results for `COC(=O)[C@H]1[C@H]2C[C@@H]3c4[nH]c5cc(OC)ccc5c4CCN3C[C@H]2C[C@@H](OC(=O)c2cc(OC)c(OC)c(OC)c2)[C@@H]1OC` [RESERPINE] were, in that order, -15%, -32%, -22% and -31%.
